Experimental data reported in PMC12395297, “Bidirectional Modification of a Galbulimima Alkaloid Identifies Selective Opioid Ligands” (ACS Central Science, 2025).
pEC50, pKi: −log10 of the molar value. Entries after “also recorded” stand apart in the source; their conditions may differ.

Legend:
KOR [1] = target: T1, KOR (Homo sapiens, UniProt P41145); experiment: KOR affinity (pKi) of pyridyl GB18 analogs, Figure 1b; type: binding; settings: footnote a
KOR [2] = target: T1, KOR; experiment: 35S-GTPγS binding in CHO-KOR cells; type: biochemical; settings: read-out: KOR Emax
320 GPCRs = experiment: GPCRome PRESTO-Tango screen across 320 GPCRs (PDSP); type: cell-based
KOR [3] = target: T1, KOR; experiment: Inhibition of forskolin-stimulated cAMP accumulation (KOR agonism, HTRF); type: cell-based
MOR = MOR (Homo sapiens, UniProt P35372); design: method as in earlier paper of the authors (Woo, Shenvi, Nature 2022); settings: antagonism; TANGO β-arrestin signaling, n = 3; ref earlier paper of the authors (Woo, Shenvi, Nature 2022); cited from earlier work
MOR, sequence (P35372 whole entry): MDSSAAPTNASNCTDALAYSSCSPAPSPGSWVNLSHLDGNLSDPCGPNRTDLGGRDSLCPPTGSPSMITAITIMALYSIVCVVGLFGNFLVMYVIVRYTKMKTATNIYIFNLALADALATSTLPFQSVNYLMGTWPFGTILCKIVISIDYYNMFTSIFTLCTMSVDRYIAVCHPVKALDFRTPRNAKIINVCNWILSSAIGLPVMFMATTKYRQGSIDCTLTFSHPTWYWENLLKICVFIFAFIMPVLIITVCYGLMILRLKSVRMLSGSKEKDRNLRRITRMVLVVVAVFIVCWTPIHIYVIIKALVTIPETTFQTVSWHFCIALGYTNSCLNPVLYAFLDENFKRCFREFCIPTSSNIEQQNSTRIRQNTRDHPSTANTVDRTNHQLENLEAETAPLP

KOR [4] = target: T1, KOR; design: method as in earlier paper of the authors (Woo, Shenvi, Nature 2022); settings: antagonism; TANGO β-arrestin signaling, n = 3; ref earlier paper of the authors (Woo, Shenvi, Nature 2022); cited from earlier work

T1 sequence (P41145 whole entry): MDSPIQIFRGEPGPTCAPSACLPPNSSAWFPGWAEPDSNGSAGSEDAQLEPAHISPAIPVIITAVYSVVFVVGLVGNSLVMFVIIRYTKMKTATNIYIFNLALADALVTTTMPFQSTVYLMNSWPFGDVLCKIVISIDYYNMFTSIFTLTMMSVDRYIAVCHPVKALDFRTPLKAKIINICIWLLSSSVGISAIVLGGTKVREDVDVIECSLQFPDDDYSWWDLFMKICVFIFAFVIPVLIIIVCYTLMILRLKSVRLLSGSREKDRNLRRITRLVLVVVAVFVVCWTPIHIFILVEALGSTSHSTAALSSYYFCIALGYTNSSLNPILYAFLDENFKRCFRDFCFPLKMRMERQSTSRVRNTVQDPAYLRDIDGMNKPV

| Molecule | pKi (KOR [1]) | Emax (KOR [2]) | GPCR selectivity in PRESTO-Tango agonist screen (320 GPCRs) | pEC50 (KOR [3]; inhibition of forskolin-stimulated cAMP accumulation, Figure 4 and text) | Emax (KOR [3]; read-out: KOR Emax) | MOR pIC50 (MOR) | KOR pIC50 (KOR [4]) |
| --- | --- | --- | --- | --- | --- | --- | --- |
| COC(=O)C1=CC23CCCCC2C2CC(c4cccc(C)n4)C(C)(O3)C12 (stereo not shown) [compound 2] | 7.53 | 34% | highly selective partial agonist; also recorded: agonized KOR with high selectivity among 320 GPCRs | 6.32 | 56% | – | – |
| GB18 | – | – | – | – | – | 8 | 8 |
